Measured values from patent US20260115183A1, “METHOD AND COMPOSITION FOR PROTECTING OR IMPROVING OVARIAN FUNCTION IN MAMMALS” (NANJING NUTRABUILDING BIO-TECH CO., LTD., priority 2023, published 2026).

Assays:
Female Wistar rats [1] = test: Serum total cholesterol (TC) and total triglyceride (TG) detection; settings: rat, in vivo
Description: Female Wistar rats weighing 220-230 g were selected, and all rats were free to eat. One week later, without any intervention, they were randomly divided into control group CK (n=10; Placebo); Model group MD (n=10; Placebo); Experimental group A (n=10; Ergothioneine 2.25 mg/kg/d); Experimental group B (n=10; Ergothioneine 2.25 mg/kg/d+Pyrroloquinoline quinone 1.8 mg/kg/d); Experimental group C (n=10; Ergothioneine 2.25 mg/kg/d+Pyrroloquinoline quinone 1.8 mg/kg/d+Oenothera biennis 18 mg/kg/d+inositol 9 mg/kg/d). Four groups of rats were injected with testosterone propionate (10 mg/kg, once a day for 6 weeks) and olive oil continuously. Administration was performed by gavage. Gavage intervention in each group lasted for 8 weeks. […] OGTT, insulin, HOMA-IR and blood lipid were measured in each group at the last week of gavage. After fasting for 16 h, fasting blood glucose (0 min) was measured. […] At each time point (0 min, 30 min, 60 min, 120 min), the blood glucose of rats was measured by glucose oxidase method. […] Serum total cholesterol (TC) and total triglyceride (TG) were detected by total cholesterol detection kit and triglyceride detection kit. Graphpad 8.0 software was used to analyze the data, and the result data was expressed as standard deviation (x±s), and the significance was analyzed by one-way ANOVA test.

Female Wistar rats [2] = test: OGTT blood glucose by glucose oxidase method in rats injected with testosterone propionate; assay type: in vivo; settings: different time points within 120 min, last week of gavage
Description: (§1) Female Wistar rats weighing 220-230 g were selected, and all rats were free to eat. One week later, without any intervention, they were randomly divided into control group CK (n=10; Placebo); Model group MD (n=10; Placebo); Experimental group A (n=10; Ergothioneine 2.25 mg/kg/d); Experimental group B (n=10; Ergothioneine 2.25 mg/kg/d+Pyrroloquinoline quinone 1.8 mg/kg/d); Experimental group C (n=10; Ergothioneine 2.25 mg/kg/d+Pyrroloquinoline quinone 1.8 mg/kg/d+Oenothera biennis 18 mg/kg/d+inositol 9 mg/kg/d). Four groups of rats were injected with testosterone propionate (10 mg/kg, once a day for 6 weeks) and olive oil continuously. Administration was performed by gavage.
(§2) OGTT, insulin, HOMA-IR and blood lipid were measured in each group at the last week of gavage. After fasting for 16 h, fasting blood glucose (0 min) was measured. Subsequently, rats were intraperitoneally injected with 50% glucose solution (2 g/kg). At each time point (0 min, 30 min, 60 min, 120 min), the blood glucose of rats was measured by glucose oxidase method. […] Serum total cholesterol (TC) and total triglyceride (TG) were detected by total cholesterol detection kit and triglyceride detection kit.
(§3) Graphpad 8.0 software was used to analyze the data, and the result data was expressed as standard deviation (x±s), and the significance was analyzed by one-way ANOVA test.

Female Wistar rats [3] = test: HOMA-IR index from fasting insulin and fasting blood glucose; assay type: in vivo; settings: calculated from fasting blood glucose and fasting insulin; Model group 12.5
Description: as §1, §2, §3

Female Wistar rats [4] = test: Serum hormone determination (T, E2, LH, FSH) by ELISA in rats injected with testosterone propionate; assay type: in vivo; settings: after 8 weeks of gavage intervention
Description: Female Wistar rats weighing 220-230 g were selected, and all rats were free to eat. One week later, without any intervention, they were randomly divided into control group CK (n=10; Placebo); Model group MD (n=10; Placebo); Experimental group A (n=10; Ergothioneine 2.25 mg/kg/d); Experimental group B (n=10; Ergothioneine 2.25 mg/kg/d+Pyrroloquinoline quinone 1.8 mg/kg/d); Experimental group C (n=10; Ergothioneine 2.25 mg/kg/d+Pyrroloquinoline quinone 1.8 mg/kg/d+Oenothera biennis 18 mg/kg/d+inositol 9 mg/kg/d). Four groups of rats were injected with testosterone propionate (10 mg/kg, once a day for 6 weeks) and olive oil continuously. Administration was performed by gavage. Gavage intervention in each group lasted for 8 weeks. Finally, the rats were anesthetized with 1% pentobarbital sodium, and the rats were killed when they were estrus after fasting for 16 h. Blood was collected through abdominal aorta, and the serum was taken after centrifugation at 4° C. for 15 min at a speed of 1000 g. Hormone determination: Serum total testosterone T, luteinizing hormone LH, follicle stimulating hormone FSH and estradiol E2 were determined by ELISA. […] Graphpad 8.0 software was used to analyze the data, and the result data was expressed as standard deviation (x±s), and the significance was analyzed by one-way ANOVA test.

C[N+](C)(C)[C@@H](Cc1c[nH]c(=S)[nH]1)C(=O)[O-] [Experimental group A, Ergothioneine]
content of TC in serum compared with the Model group (Female Wistar rats [1]): significantly reduce
content of TG in serum compared with the Model group (Female Wistar rats [1]): significantly reduce
blood glucose levels compared with the Model group (Female Wistar rats [2]): decreased significantly
HMOA-IR index (Female Wistar rats [3]): 11.3
serum E2 compared with the Model group (Female Wistar rats [4]): decreased significantly
serum T compared with the Model group (Female Wistar rats [4]): decreased significantly
